Data set [1] has as its system full length SMN2 minigene mRNA containing SMN2 exon 7. The data set can be described thus: SMN2 minigene mRNA splicing RT-qPCR assay in cultured cells. Type of data set: cell-based, human. The note with it: Homo sapiens, HEK293-H; HEK293H cells stably transfected with SMN2-A minigene, 24 hours, 7-point concentration curve; concentration giving 1.5-fold full length SMN2 mRNA vs vehicle; read-out: EC1.5x for production of full length SMN2 mRNA. How it is done: The reverse transcription-quantitative PCR-based (RT-qPCR) assay is used to quantify the level of the full length SMN2 minigene mRNA containing SMN2 exon 7 in a HEK293H cell line stably transfected with said minigene and treated with a test compound.
HEK293H cells stably transfected with the SMN2-A minigene construct described above (10,000 cells/well) are seeded in 200 ut, of cell culture medium (DMEM plus 10% FBS, with 200 μg/mL hygromycin) in 96-well flat-bottom plates and the plate is immediately swirled to ensure proper dispersal of cells, forming an even monolayer of cells. Cells are allowed to attach for at least 4-6 hours. Test compounds are serially diluted 3.16-fold in 100% DMSO to generate a 7-point concentration curve. A solution of test compound (1 μL, 200× in DMSO) is added to each cell-containing well and the plate is incubated for 24 hours in a cell culture incubator (37° C., 5% CO2, 100% relative humidity). 2 replicates are prepared for each test compound concentration. The cells are then lysed in Cells-To-Ct lysis buffer and the lysate is stored at −80° C.
Primer SMN Forward A (SEQ ID NO. 1) hybridizes to a nucleotide sequence in exon 7 (nucleotide 22 to nucleotide 40), primer SMN Reverse A (SEQ ID NO. 2) hybridizes to a nucleotide sequence in the coding sequence of Firefly luciferase, SMN Probe A (SEQ ID NO. 3) hybridizes to a nucleotide sequence in exon 7 (nucleotide 50 to nucleotide 54) and exon 8 (nucleotide 1 to nucleotide 21). The combination of these three oligonucleotides detects only SMN1 or SMN2 minigenes (RT-qPCR) and will not detect endogenous SMN1 or SMN2 genes.
The SMN forward and reverse primers are used at final concentrations of 0.4 μM. The SMN probe is used at a final concentration of 0.15 μM. The GAPDH primers are used at final concentrations of 0.2 μM and the probe at 0.15 μM.
The SMN2-minigene GAPDH mix (15 μL total volume) is prepared by combining 7.5 μL of 2×RT-PCR buffer, 0.4 μL of 25×RT-PCR enzyme mix, 0.75 μL of 20×GAPDH primer-probe mix, 4.0075 μL of water, 2 μL of 10-fold diluted cell lysate, 0.06 μL of 100 μM SMN forward primer, 0.06 μL of 100 μM SMN reverse primer, and 0.225 μL of 100 μM SMN probe.
PCR is carried out at the following temperatures for the indicated time: Step 1: 48° C. (15 min); Step 2: 95° C. (10 min); Step 3: 95° C. (15 sec); Step 4: 60° C. (1 min); then repeat Steps 3 and 4 for a total of 40 cycles.
Each reaction mixture contains both SMN2-A minigene and GAPDH primersprobe sets (multiplex design), allowing simultaneous measurement of the levels of two transcripts.
Two SMN spliced products are generated from the SMN2 minigene. The first spliced product containing exon 7, corresponding to full length SMN2 mRNA, is referred to herein using the term “SMN2 minigene FL.” The second spliced product lacking exon 7 is referred to herein using the term “SMN2 minigene Δ7.”
The increase of SMN2 minigene FL mRNA relative to that in cells treated with vehicle control is determined from real-time PCR data using a modified ΔΔCt method (as described in Livak and Schmittgen, Methods, 2001, 25:402-8). The amplification efficiency (E) is calculated from the slope of the amplification curve for SMN2 minigene FL and GAPDH individually. The abundances of SMN2 minigene FL and GAPDH are then calculated as (1+E)^−Ct, where Ct is the threshold value for each amplicon. The abundance of SMN2 minigene FL is normalized to GAPDH abundance. The normalized SMN2 minigene FL abundance from test compound-treated samples is then divided by normalized SMN2 minigene FL abundance from vehicle-treated cells to determine the level of SMN2 FL mRNA relative to vehicle control.

A further data set concerns Smn protein. The experiment in a line: Smn protein assay in cultured cells (SMN HTRF). Type of data set: cell-based, human. The note with it: SMA patient fibroblast cells (GM03813), 48 hours; for EC1.5x for Smn protein expression: 7-point concentration curve, concentration producing 1.5 times Smn protein vs DMSO vehicle; for maximum fold (Fold) increase of Smn protein: 7-point concentration data, relative to vehicle control. How it is done: The SMN HTRF (homogeneous time resolved fluorescence) assay is used to quantify the level of Smn protein in SMA patient fibroblast cells treated with test compounds.
Cells are thawed and cultured in DMEM-10% FBS for 72 hours. Cells are trypsinized, counted and re-suspended to a concentration of 25,000 cells/mL in DMEM-10% FBS. The cell suspensions are plated at 5,000 cells per well in a 96 well microtiter plate and incubated for 3 to 5 hours. […] Test compounds are serially diluted 3.16-fold in 100% DMSO to generate a 7-point concentration curve. 1 μL of test compound solution is transferred to cell-containing wells and cells are incubated for 48 hours in a cell culture incubator (37° C., 5% CO2, 100% relative humidity). Triplicate samples are set up for each test compound concentration. After 48 hours, the supernatant is removed from the wells and 25 μL of the RIPA lysis buffer, containing protease inhibitors, is added to the wells and incubated with shaking at room temperature for 1 hour. 25 μL of the diluent is added and then 35 μL of the resulting lysate is transferred to a 384-well plate, where each well contains 5 μL of the antibody solution (1:100 dilution of anti-SMN d2 and anti-SMN kryptate in SMN reconstitution buffer). The plate is centrifuged for 1 minute to bring the solution to the bottom of the wells, then incubated overnight at room temperature. Fluorescence for each well of the plate at 665 nm and 620 nm is measured on an EnVision multilabel plate reader (Perkin-Elmer).
The normalized fluorescence signal is calculated for each sample, Blank and vehicle control well by dividing the signal at 665 nm by the signal at 620 nm. Normalizing the signal accounts for possible fluorescence quenching due to the matrix effect of the lysate. The ΔF value (a measurement of Smn protein abundance as a percent value) for each sample well is calculated by subtracting the normalized average fluorescence for the Blank control wells from the normalized fluorescence for each sample well, then dividing this difference by the normalized average fluorescence for the Blank control wells and multiplying the resulting value by 100. The ΔF value for each sample well represents the Smn protein abundance from test compound-treated samples. The ΔF value for each sample well is divided by the ΔF value for the vehicle control wells to calculate the fold increase in Smn protein abundance relative to the vehicle control.
In general terms: TR-FRET usually uses a lanthanide donor and a delayed reading to cut background.

Molecule `Cc1cn2cc(-c3cc4ccc(C5=CCN(C)CC5)cc4c(=O)o3)nc2c(C)n1` [Cpd 89, 3-(6,8-dimethylimidazo[1,2-a]pyrazin-2-yl)-7-(1-methyl-1,2,3,6-tetrahydropyridin-4-yl)-1H-isochromen-1-one] returned a melting point of 240 to 242 °C. For the same molecule, the EC (1.5-fold) in data set [1] is at most 0.1 µM. Besides, in the data set with Smn protein, the “EC1.5x for Smn protein expression” value is “**** (an EC1.5×≦0.3 nM is indicated by four stars (****))”; the “maximum fold (Fold) increase of Smn protein” value (shortened to “maximum fold (Fold) increase”) was “**** (a fold increase between >1.5 and ≦1.65 is indicated by four stars (****))”.

Take `CN1CCN(c2ccc3cc(-c4ccc5c(c4)OCCO5)oc(=O)c3c2)CC1` [Cpd 38, 3-(2,3-dihydro-1,4-benzodioxin-6-yl)-7-(4-methylpiperazin-1-yl)-1H-isochromen-1-one]: the melting point is 163 to 165 °C. The EC (1.5-fold) in data set [1] lay in the range of 3 to 30 µM. In addition, the “maximum fold (Fold) increase” value with Smn protein is “* (A maximum fold increase of ≦1.2 is indicated by one star (*))”.

`O=c1oc(-c2nc3ccccc3s2)cc2ccc(N3CCCNCC3)cc12` [Cpd 10, 3-(1,3-benzothiazol-2-yl)-7-(1,4-diazepan-1-yl)-1H-isochromen-1-one]: the melting point fell in the range of 277 to 279 °C. Further, in data set [1], the EC (1.5-fold) fell in the range of 1 to 3 µM. The “maximum fold (Fold) increase” value in the data set on Smn protein is “* (A maximum fold increase of ≦1.2 is indicated by one star (*))”.

On to `CCN1CCN(c2ccc3cc(-c4cn5cc(C)nc(C)c5n4)oc(=O)c3c2)C[C@H]1C` [Cpd 140, 3-(6,8-dimethylimidazo[1,2-a]pyrazin-2-yl)-7-[(3R)-4-ethyl-3-methylpiperazin-1-yl]-1H-isochromen-1-one], for which the melting point lay in the range of 243 to 246 °C. Also, in data set [1], the EC (1.5-fold) was at most 0.1 µM. Moreover, in the data set with Smn protein, the “EC1.5x for Smn protein expression” value is “**** (an EC1.5×≦0.3 nM is indicated by four stars (****))” and the “maximum fold (Fold) increase” value was “***** (a fold increase >1.65 is indicated by five stars (*****))”.

`COc1cccc(-c2cc3ccc(N4CCCNCC4)cc3c(=O)o2)c1` [Cpd 21, 7-(l,4-diazepan-1-yl)-3-(3-methoxyphenyl)-1H-isochromen-1-one] showed a melting point of 148 to 150 °C. In data set [1], the EC (1.5-fold) is 3 to 30 µM. For the same molecule, in the data set on Smn protein, the “maximum fold (Fold) increase” value was “* (A maximum fold increase of ≦1.2 is indicated by one star (*))”.

With `Cc1nc2ccc(-c3cc4ccc(N5CCN(C(C)C)CC5)cc4c(=O)o3)cc2s1` [Cpd 105, 3-(2-methyl-1,3-benzothiazol-6-yl)-7-[4-(propan-2-yl)piperazin-1-yl]-1H-isochromen-1-one], the melting point is 222 to 228 °C. In addition, the EC (1.5-fold) in data set [1] is 0.1 to 0.3 µM. In addition, in the data set with Smn protein, the “maximum fold (Fold) increase” value is “** (a fold increase between >1.2 and ≦1.35 is indicated by two stars (**))”.

`C[C@@H]1CN(c2ccc3cc(-c4ccc5c(c4)OCCO5)oc(=O)c3c2)C[C@H](C)N1` [Cpd 39, 3-(2,3-dihydro-1,4-benzodioxin-6-yl)-7-[(3R,5S)-3,5-dimethylpiperazin-1-yl]-1H-isochromen-1-one] gave a melting point of 218 to 220 °C. In addition, in data set [1], the EC (1.5-fold) was in the range of 1 to 3 µM. Also, the “maximum fold (Fold) increase” value in the data set on Smn protein was “* (A maximum fold increase of ≦1.2 is indicated by one star (*))”.

Consider `COc1ccc(-c2cc3ccc(N4CCNCC4)cc3c(=O)o2)cc1OC` [Cpd 3, 3-(3,4-dimethoxyphenyl)-7-(piperazin-1-yl)-1H-isochromen-1-one], for which the melting point lay within 142 to 143 °C. Further, in data set [1], the EC (1.5-fold) is at most 0.1 µM. In the data set with Smn protein, the “EC1.5x for Smn protein expression” value was “*** (an EC1.5× between >0.3 nM and ≦1 nM is indicated by three stars (***))”; the “maximum fold (Fold) increase” value is “**** (a fold increase between >1.5 and ≦1.65 is indicated by four stars (****))”.

A word on the melting point: it is the temperature, or range, at which the solid turns liquid.

Source of the values: US9399649B2, “Compounds for treating spinal muscular atrophy” (PTC Therapeutics Inc., priority 2012, dated 2016).
